The results in this text go back to ChEMBL document CHEMBL3046180, “Antifungal activity of some diaryl ethers” (2007).

Holding throughout (type): functional
Holding throughout (conditions): 96 h, read-out: GI

Experiment [1] relates to Fusarium oxysporum f. sp. vasinfectum. The experiment in a line: Growth inhibition of Fusarium oxysporum f. sp. vasinfectum at 50 ug/ml after 4 days by poisoned food technique.
The test system of experiment [2] is Fusarium graminearum. As to the kind of experiment: Growth inhibition of Fusarium graminearum at 50 ug/ml after 4 days by poisoned food technique.
The subject of experiment [3] is Alternaria brassicae. The experiment in a line: Growth inhibition of Alternaria brassicae at 50 ug/ml after 4 days by poisoned food technique.
Experiment [4] deals with Alternaria alternata. As to the kind of experiment: Growth inhibition of Alternaria alternata at 500 ug/ml after 4 days by poisoned food technique.
The subject of experiment [5] is Pyricularia oryzae. As to the kind of experiment: Growth inhibition of Magnaporthe oryzae at 50 ug/ml after 4 days by poisoned food technique.
The subject of experiment [6] is Bipolaris sorokiniana. The experiment in a line: Growth inhibition of Bipolaris sorokiniana at 50 ug/ml after 4 days by poisoned food technique.
For experiment [7], the system named is Pyricularia oryzae. The experiment in a line: Growth inhibition of Magnaporthe oryzae at 500 ug/ml after 4 days by poisoned food technique.
Experiment [8] relates to Alternaria brassicae. As to the kind of experiment: Growth inhibition of Alternaria brassicae at 500 ug/ml after 4 days by poisoned food technique.
Experiment [9] relates to Fusarium graminearum. As to the kind of experiment: Growth inhibition of Fusarium graminearum at 500 ug/ml after 4 days by poisoned food technique.
Experiment [10] has as its system Alternaria alternata. As to the kind of experiment: Growth inhibition of Alternaria alternata at 50 ug/ml after 4 days by poisoned food technique.
Experiment [11] relates to Fusarium oxysporum f. sp. cucumerinum. The experiment in a line: Growth inhibition of Fusarium oxysporum f. sp. cucumerinum at 500 ug/ml after 4 days by poisoned food technique.
The test system is the same in experiment [12]. The experiment in a line: Growth inhibition of Fusarium oxysporum f. sp. cucumerinum at 50 ug/ml after 4 days by poisoned food technique.
The test system of experiment [13] is Bipolaris sorokiniana. The experiment in a line: Growth inhibition of Bipolaris sorokiniana at 500 ug/ml after 4 days by poisoned food technique.
In experiment [14] the test system is Fusarium oxysporum f. sp. vasinfectum. As to the kind of experiment: Growth inhibition of Fusarium oxysporum f. sp. vasinfectum at 500 ug/ml after 4 days by poisoned food technique.

Take `N#Cc1ccccc1Oc1ccc(Cl)cc1`: the inhibition of growth at 50 µg/mL is 52.5% in experiment [1]; 79.6% in the experiment on Fusarium graminearum [2]; 56.8% in the experiment on Alternaria brassicae [3]; 59.7% in the experiment on Pyricularia oryzae [5]; 68% in the experiment on Bipolaris sorokiniana [6]; 55.9% with Alternaria alternata [10]. Moreover, the inhibition of growth at 50 µg/mL in experiment [12] was found to be 48.8%. For the same molecule, the inhibition of growth at 500 µg/mL is 78% in the experiment with Alternaria alternata [4]; 77.7% with Pyricularia oryzae [7]; 74.1% in the experiment on Alternaria brassicae [8]; 83.7% with Fusarium graminearum [9]; 54.3% in experiment [11]; 56.2% in the experiment on Bipolaris sorokiniana [13]. Also, the inhibition of growth at 500 µg/mL in experiment [14] was 57%.
As to `CC(C)(C)c1ccc(Oc2ccccc2[N+](=O)[O-])cc1`, the inhibition of growth at 50 µg/mL in experiment [1] came to 19.3%; in the experiment with Fusarium graminearum [2], 38.8%; with Alternaria brassicae [3] it was 38.4%; in the experiment on Pyricularia oryzae [5], 37.9%; with Bipolaris sorokiniana [6], 50.3%; with Alternaria alternata [10] it was 33%. Further, in experiment [12], the inhibition of growth at 50 µg/mL is 8.4%. The inhibition of growth at 500 µg/mL with Alternaria alternata [4] is 53.3%; in the experiment on Pyricularia oryzae [7], 44.8%; in the experiment with Alternaria brassicae [8], 37.4%; in the experiment on Fusarium graminearum [9] it was 52.7%; in [11] it was 17.3%; in the experiment with Bipolaris sorokiniana [13], 38.7%. Moreover, the inhibition of growth at 500 µg/mL in experiment [14] came to 11.2%.
As for `CC(C)(C)c1ccc(Oc2ccccc2C#N)cc1`, the inhibition of growth at 50 µg/mL in experiment [1] worked out at 20.1%; in the experiment on Fusarium graminearum [2], 38.3%; in the experiment on Alternaria brassicae [3], 43.5%; in the experiment with Pyricularia oryzae [5] it was 43.7%; in the experiment on Bipolaris sorokiniana [6], 42.8%; with Alternaria alternata [10], 35.8%. The inhibition of growth at 50 µg/mL in [12] is 20.4%. The inhibition of growth at 500 µg/mL in the experiment on Alternaria alternata [4] worked out at 51%; in the experiment on Pyricularia oryzae [7], 43.1%; in the experiment with Alternaria brassicae [8] it was 53.3%; with Fusarium graminearum [9], 56%; in experiment [11] it was 33.3%; in the experiment on Bipolaris sorokiniana [13], 38.4%. Further, the inhibition of growth at 500 µg/mL in [14] amounted to 44.3%.
As to `O=[N+]([O-])c1ccccc1Oc1ccc(Cl)cc1`, the inhibition of growth at 50 µg/mL stood at 40.3% in [1]; 59.7% in the experiment on Fusarium graminearum [2]; 61% with Alternaria brassicae [3]; 48.3% in the experiment on Pyricularia oryzae [5]; 79.9% in the experiment with Bipolaris sorokiniana [6]; 51.8% in the experiment on Alternaria alternata [10]. Besides, the inhibition of growth at 50 µg/mL in experiment [12] was determined as 44.9%. Moreover, the inhibition of growth at 500 µg/mL in the experiment on Alternaria alternata [4] is 71.7%; with Pyricularia oryzae [7], 69%; with Alternaria brassicae [8], 74.3%; in the experiment on Fusarium graminearum [9], 73.6%; in experiment [11], 50.2%; in the experiment on Bipolaris sorokiniana [13] it was 40.9%. Also, the inhibition of growth at 500 µg/mL in [14] was found to be 47.5%.
For `O=[N+]([O-])c1ccccc1Oc1ccccc1Cl`, the inhibition of growth at 50 µg/mL turned out to be 59.7% in [1]; 65.2% with Fusarium graminearum [2]; 64.5% with Alternaria brassicae [3]; 51% in the experiment on Pyricularia oryzae [5]; 88.7% in the experiment with Bipolaris sorokiniana [6]; 52.8% with Alternaria alternata [10]. For the same molecule, in [12], the inhibition of growth at 50 µg/mL is 48%. Moreover, the inhibition of growth at 500 µg/mL with Alternaria alternata [4] amounted to 74%; with Pyricularia oryzae [7] it was 71.6%; in the experiment on Alternaria brassicae [8], 76.2%; in the experiment with Fusarium graminearum [9], 78.6%; in [11] it was 53.8%; with Bipolaris sorokiniana [13] it was 71.1%. Further, the inhibition of growth at 500 µg/mL in experiment [14] was 58%.
Consider `O=[N+]([O-])c1ccc(Oc2ccccc2[N+](=O)[O-])cc1` [2,4'-OXYBIS(NITROBENZENE)], for which the inhibition of growth at 50 µg/mL in [1] is 19.3%; with Fusarium graminearum [2] it was 66.2%; in the experiment with Alternaria brassicae [3], 8.5%; in the experiment on Pyricularia oryzae [5], 31.4%; in the experiment on Bipolaris sorokiniana [6], 42.2%; in the experiment on Alternaria alternata [10], 49.3%. Besides, the inhibition of growth at 50 µg/mL in [12] turned out to be 9.3%. The inhibition of growth at 500 µg/mL in the experiment on Alternaria alternata [4] turned out to be 56.3%; in the experiment with Pyricularia oryzae [7], 47.1%; with Alternaria brassicae [8], 49.6%; in the experiment on Fusarium graminearum [9], 68.7%; in [11], 33.3%; with Bipolaris sorokiniana [13] it was 35.3%. Also, the inhibition of growth at 500 µg/mL in [14] came to 42.7%.
For the molecule `O=[N+]([O-])c1ccc(Oc2ccccc2)cc1`, the inhibition of growth at 50 µg/mL was determined as 81.8% in experiment [1]; 71.6% with Fusarium graminearum [2]; 55.5% with Alternaria brassicae [3]; 48% in the experiment with Pyricularia oryzae [5]; 87.2% in the experiment on Bipolaris sorokiniana [6]; 66.8% in the experiment with Alternaria alternata [10]. Besides, the inhibition of growth at 50 µg/mL in experiment [12] amounted to 61.2%. Further, the inhibition of growth at 500 µg/mL in the experiment on Alternaria alternata [4] stood at 83.8%; in the experiment with Pyricularia oryzae [7], 81.9%; in the experiment with Alternaria brassicae [8] it was 76%; in the experiment on Fusarium graminearum [9], 87.4%; in experiment [11], 72.9%; in the experiment on Bipolaris sorokiniana [13], 73%. Further, the inhibition of growth at 500 µg/mL in [14] was 83.4%.
For `Cc1cccc(Oc2ccccc2[N+](=O)[O-])c1`, the inhibition of growth at 50 µg/mL in experiment [1] was 53.2%; in the experiment with Fusarium graminearum [2] it was 38.8%; with Alternaria brassicae [3], 58.9%; in the experiment on Pyricularia oryzae [5] it was 56.3%; with Bipolaris sorokiniana [6], 85.5%; with Alternaria alternata [10], 49%. Also, in experiment [12], the inhibition of growth at 50 µg/mL was determined as 50.2%. Besides, the inhibition of growth at 500 µg/mL is 74.5% in the experiment on Alternaria alternata [4]; 82.8% with Pyricularia oryzae [7]; 73.9% with Alternaria brassicae [8]; 70.1% in the experiment on Fusarium graminearum [9]; 46% in [11]; 58.5% in the experiment on Bipolaris sorokiniana [13]. The inhibition of growth at 500 µg/mL in experiment [14] is 46.7%.
In the case of `Cc1cc(O)no1` [HYMEXAZOL], the inhibition of growth at 50 µg/mL was found to be 45.8% in experiment [1]; 38.7% in the experiment on Fusarium graminearum [2]; 89% with Alternaria brassicae [3]; 66.4% with Pyricularia oryzae [5]; 100% with Bipolaris sorokiniana [6]; 82.3% with Alternaria alternata [10]. In [12], the inhibition of growth at 50 µg/mL is 19.8%. For the same molecule, the inhibition of growth at 500 µg/mL in the experiment with Alternaria alternata [4] was 100%; in the experiment with Pyricularia oryzae [7] it was 100%; with Alternaria brassicae [8], 100%; with Fusarium graminearum [9], 99.4%; in experiment [11] it was 91.5%; in the experiment on Bipolaris sorokiniana [13], 37.1%. Also, in experiment [14], the inhibition of growth at 500 µg/mL is 92.3%.
Consider `Cc1cccc(Oc2ccc([N+](=O)[O-])cc2)c1`, for which the inhibition of growth at 50 µg/mL in [1] came out at 65.1%; in the experiment with Fusarium graminearum [2], 62.8%; in the experiment with Alternaria brassicae [3], 37.3%; in the experiment with Pyricularia oryzae [5], 39.2%; in the experiment with Bipolaris sorokiniana [6], 44.4%; with Alternaria alternata [10], 48.4%. Besides, in experiment [12], the inhibition of growth at 50 µg/mL was 57.9%. Also, the inhibition of growth at 500 µg/mL in the experiment on Alternaria alternata [4] turned out to be 61.2%; in the experiment on Pyricularia oryzae [7], 60.3%; in the experiment with Alternaria brassicae [8], 52.8%; with Fusarium graminearum [9], 92.4%; in experiment [11], 64.6%; with Bipolaris sorokiniana [13], 32%. The inhibition of growth at 500 µg/mL in experiment [14] stood at 74.3%.
`O=[N+]([O-])c1ccc(Oc2ccc([N+](=O)[O-])cc2)cc1` [4,4'-OXYBIS(NITROBENZENE)]: the inhibition of growth at 50 µg/mL in experiment [1] is 57.6%; in the experiment with Fusarium graminearum [2], 13.6%; in the experiment with Alternaria brassicae [3] it was 36.8%; in the experiment with Pyricularia oryzae [5], 1.9%; in the experiment with Bipolaris sorokiniana [6], 20.4%; with Alternaria alternata [10], 15%. In experiment [12], the inhibition of growth at 50 µg/mL was 38%. Further, the inhibition of growth at 500 µg/mL in the experiment on Alternaria alternata [4] worked out at 19.8%; in the experiment on Pyricularia oryzae [7] it was 36.6%; with Alternaria brassicae [8], 75.2%; in the experiment with Fusarium graminearum [9] it was 3.1%; in experiment [11] it was 50.9%; with Bipolaris sorokiniana [13], 16.7%. The inhibition of growth at 500 µg/mL in [14] turned out to be 63.6%.
Regarding `O=[N+]([O-])c1ccc(Oc2ccc(Cl)cc2)cc1`, the inhibition of growth at 50 µg/mL came out at 41.4% in [1]; 63% with Fusarium graminearum [2]; 42.7% in the experiment on Alternaria brassicae [3]; 47.6% with Pyricularia oryzae [5]; 78.1% with Bipolaris sorokiniana [6]; 47.4% with Alternaria alternata [10]. The inhibition of growth at 50 µg/mL in [12] is 34.1%. Besides, the inhibition of growth at 500 µg/mL in the experiment with Alternaria alternata [4] was found to be 61.3%; in the experiment on Pyricularia oryzae [7] it was 63.8%; with Alternaria brassicae [8], 47.2%; with Fusarium graminearum [9], 66.8%; in [11], 38%; in the experiment on Bipolaris sorokiniana [13] it was 74.3%. Besides, the inhibition of growth at 500 µg/mL in [14] is 43.4%.
